Assay results published in EP2646421B1, “7-NITRO-5-PHENYL-1-(PYRROLIDIN-1-YLMETHYL)-1H-BENZO[E][1,4]DIAZEPIN-2(3H)-ONE AND OTHER BENZODIAZEPINE DERIVATIVES” (Pignataro, Giuseppe, priority 2010, dated 2012).

Legend:
Type in all cases: cell-based
NCX1 = target: T1, NCX1 (Canis lupus familiaris, UniProt P23685); test: Fura-2 AM single-cell microfluorimetry, BHK-NCX1 cells; conditions: 10 nM (Fig. 2)
T1 construct: expressed in transfected cells
Experimental: (§1) The activity of NCX was established by means of three different subclones of baby hamsted kidney (BHK) cells that were stably transfected with one of each NCX isoforms, named BHK-NCX1, BHK-NCX2 and BHK-NCX3. These cell lines were grown on plastic dishes in a mix of DMEM and Ham's F12 media (1:1) (Gibco, Invitrogen, MI, Italy) supplemented with 5% fetal bovine serum, 100 U/ml penicillin, and 100 µg/ml streptomycin (Sigma, St. Louis, Missouri, USA). Cells were cultured in a humidified 5% CO2 atmosphere and at the temperature of 37°C.
(§2) NCX activity has been measured considering the variation of intracellular concentrations of Ca^2+ ions ([Ca^2+]i) due to its activation by means of single-cell microfluorimetry. […] In both cases, this probe will produce an emission at 510 nm; the ratio between the two emission relative to 340 and 380 excitation allow to quantify [Ca^2+]i in the time considering the calibration curve previously performed. […]
(§3) Briefly, BHK cells wild type and/or BHK trasnsfected with NCX mutants, grown on glass coverslips, were loaded with Fura-2 acetoxymethyl ester (Fura-2AM) (10 µM) for 30 minutes at 37°C in normal Krebs solution containing the following (in mM): 5.5 KCI, 160 NaCl, 1.2 MgCl2, 1.5 CaCl2, 10 glucose, and 10 Hepes-NaOH, pH 7.4. […] Fura-2 fluorescence intensity was measured every 3 seconds. […]

NCX3 = target: T2, NCX3 (Rattus norvegicus, UniProt P70549); test: Fura-2 AM single-cell microfluorimetry, BHK-NCX3 cells; conditions: 10 nM (Fig. 2)
T2 construct: expressed in transfected cells
T2 sequence (P70549 31-927): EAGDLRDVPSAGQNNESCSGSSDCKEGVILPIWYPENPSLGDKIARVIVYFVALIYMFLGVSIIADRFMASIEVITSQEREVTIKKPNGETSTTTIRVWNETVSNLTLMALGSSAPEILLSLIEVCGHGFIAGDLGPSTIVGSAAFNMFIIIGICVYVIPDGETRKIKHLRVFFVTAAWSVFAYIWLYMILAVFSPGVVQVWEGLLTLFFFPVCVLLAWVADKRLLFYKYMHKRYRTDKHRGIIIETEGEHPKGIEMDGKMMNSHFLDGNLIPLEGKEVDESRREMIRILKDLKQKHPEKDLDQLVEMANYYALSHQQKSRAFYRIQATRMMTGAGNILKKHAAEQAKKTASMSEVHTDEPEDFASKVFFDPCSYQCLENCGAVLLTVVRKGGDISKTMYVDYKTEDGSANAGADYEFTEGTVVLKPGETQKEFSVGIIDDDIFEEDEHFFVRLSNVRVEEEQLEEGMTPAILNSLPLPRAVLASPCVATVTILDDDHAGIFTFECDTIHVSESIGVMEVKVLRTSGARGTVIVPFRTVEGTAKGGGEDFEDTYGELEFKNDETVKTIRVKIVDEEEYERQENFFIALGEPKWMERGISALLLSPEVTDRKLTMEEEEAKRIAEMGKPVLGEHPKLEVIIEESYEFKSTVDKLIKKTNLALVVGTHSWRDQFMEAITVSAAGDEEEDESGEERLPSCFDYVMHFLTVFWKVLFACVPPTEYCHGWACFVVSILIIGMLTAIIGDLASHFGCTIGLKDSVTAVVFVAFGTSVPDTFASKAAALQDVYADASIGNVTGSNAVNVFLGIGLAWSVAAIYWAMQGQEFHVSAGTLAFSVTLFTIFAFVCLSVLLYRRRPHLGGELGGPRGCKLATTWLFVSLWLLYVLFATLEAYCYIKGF
Experimental: as §1, §2, §3

N1-109/133 = target: T3, N1-109/133 (Canis lupus familiaris, UniProt P23685, N157G/T159I/V150L); test: Na+-dependent 45Ca2+ uptake and efflux on NCX1/NCX3 chimera; conditions: 10 nM; NCX1 region 109-133 (α1) substituted with NCX3 segment
T3 construct: expressed in transfected cells
T3 sequence (P23685 33-970 V150L/N157G/T159I): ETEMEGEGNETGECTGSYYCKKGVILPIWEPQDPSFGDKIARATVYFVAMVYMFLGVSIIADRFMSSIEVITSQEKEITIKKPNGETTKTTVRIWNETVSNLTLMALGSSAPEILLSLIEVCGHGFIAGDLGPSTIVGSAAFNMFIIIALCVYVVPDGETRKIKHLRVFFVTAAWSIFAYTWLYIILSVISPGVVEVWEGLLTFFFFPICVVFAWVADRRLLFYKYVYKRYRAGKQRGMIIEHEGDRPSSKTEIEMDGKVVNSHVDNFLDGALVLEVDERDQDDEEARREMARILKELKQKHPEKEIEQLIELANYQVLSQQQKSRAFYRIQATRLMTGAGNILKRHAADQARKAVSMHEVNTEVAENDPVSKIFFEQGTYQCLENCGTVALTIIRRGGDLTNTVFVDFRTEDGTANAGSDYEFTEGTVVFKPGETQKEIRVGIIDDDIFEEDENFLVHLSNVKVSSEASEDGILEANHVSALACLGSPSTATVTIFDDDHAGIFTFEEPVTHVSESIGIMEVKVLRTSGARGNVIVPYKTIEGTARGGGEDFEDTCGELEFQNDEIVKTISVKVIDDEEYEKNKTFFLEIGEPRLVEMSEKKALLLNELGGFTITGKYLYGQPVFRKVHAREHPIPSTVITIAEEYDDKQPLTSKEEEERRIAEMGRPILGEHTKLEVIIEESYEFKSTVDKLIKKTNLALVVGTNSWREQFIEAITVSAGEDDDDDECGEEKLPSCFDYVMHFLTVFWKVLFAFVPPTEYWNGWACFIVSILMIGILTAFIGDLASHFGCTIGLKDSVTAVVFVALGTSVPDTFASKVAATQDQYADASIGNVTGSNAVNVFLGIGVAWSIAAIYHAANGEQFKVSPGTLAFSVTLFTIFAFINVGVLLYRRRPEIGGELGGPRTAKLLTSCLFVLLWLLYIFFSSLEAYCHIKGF
Source text: (§4) To deeper investigate on the regions and amino acids present on NCX1 responsible for the interaction with neurounina-1 compound, we utilized chimeric and site-mutated proteins. In particular, we generate chimeric proteins with a large sequence of NCX1 and some regions of NCX3 protein. […] By using the chimeric technique it is possible to determine the importance of NCX1 regions by substituting with analogue segments of NCX3 protein. […] Therefore, these two regions result to be involved in the pharmacological modulation of NCX1 from neurounina-1 compound.
(§5) All experiments aimed to identify the binding site of neurounina-1 were performed on BHK cells stably transfected with a single NCX chimera or mutant.
(§6) The activity of the Na^+/Ca^2+ exchanger was measured by means of ^45Ca^2+ radiotracer variations in the cytoplasm of cells exposed to a protocol stimulating the forward or the reverse mode of the antiporter. The BHK cells expressing each mutated or non-mutated NCX isoform were cultured in 12-well dishes and incubated in 145 mM NaCl for 10 minutes and then in a medium containing only 145 mM N-Methyl D-glucamine (NMDG) and 10 µM of ^45Ca^2+. This rapid substitution of the medium from a high level of Na^+ to another one without Na^+ allow the ^45Ca^2+ influx (reverse mode). Before the medium substitution cells was incubated with 1 mM ouabain, a Na^+/K^+ pump inhibitor, and 10 µM monensin, a ionophore for extracellular Na^+. After 30 seconds incubation, cells were washed with an ice-cold solution containing 2 mM La^3+ to stop ^45Ca^2+ uptake. The medium was removed and cells were subsequently lysed with 0.1 N NaOH and aliquots were taken to determine radioactivity and protein content.
(§7) In order to measure NCX activity in the forward mode, cells were firstly loaded with ^45Ca^2+ and subsequently exposed to a chemical protocol to stimulate the efflux of the radiotracer in the extracellular medium. […] After 60 second, cells were lysed with […] NaOH and aliquots were taken to determine cytoplasmatic radioactivity.

N1-788/829 = target: T4, N1-788/829 (Canis lupus familiaris, UniProt P23685, L840F/Q858V/T855L/V852A); test: as above; conditions: 10 nM; NCX1 region 788-829 (α2) substituted with NCX3 segment
T4 construct: expressed in transfected cells
T4 sequence (P23685 33-970 L840F/V852A/T855L/Q858V): as the sequence (P23685 33-970 V150L/N157G/T159I) above, with L118V, G125N, I127T, L808F, V820A, T823L, Q826V counted along it
Source text: as §4, §5, §6, §7

[1] = tested on: N3-(109/133-788/829) chimera; test: as above; conditions: 10 nM; NCX3 with α1 and α2 regions of NCX1
Source text: as §4, §5, §6, §7

T1 sequence (P23685 33-970): as the sequence (P23685 33-970 V150L/N157G/T159I) above, with L118V, G125N, I127T counted along it

SMILES: O=C1CN=C(c2ccccc2)c2cc([N+](=O)[O-])ccc2N1CN1CCCC1 [neurounina-1, 7-nitro-5-phenyl-1-(pyrrolidin-1-ylmethyl)-1H-benzo[e][1,4]diazepin-2(3H)-one]
- increased reverse mode activity of NCX1 (NCX1): 30%
- activity of Na+/Ca2+ exchange in BHK cells expressing NCX3 (NCX3): did not show any significant difference
- pharmacological effect on N1-109/133 chimera (N1-109/133): removed the pharmacological effect
- pharmacological effect on N1-788/829 chimera (N1-788/829): removed the pharmacological effect
- activity of N3-(109/133-788/829) chimera [1]: significantly increased activity
